Test results: patent publication US7348425B2, “Inhibitors of HCV replication” (Bristol-Myers Squibb Company, priority 2004, dated 2008)

Legend:
[1] = biological target: T1, HCV NS5B RdRp genotype 1b (Hepatitis C virus genotype 1b, UniProt Q9WMX2); assay: Modified HCV NS5B RdRp enzyme assay (with preincubation); assay type: biochemical; settings: modified method (with preincubation)
T1 construct: The protein was expressed with an 18 amino acid C-terminal truncation to enhance the solubility; made in house; host or cells: E. coli BL21 (DE3), pET21a
Procedure: HCVNS5B RdRp cloning, expression, and purification. The cDNA encoding the NS5B protein of HCV, genotype 1b, was cloned into the pET21a expression vector. The protein was expressed with an 18 amino acid C-terminal truncation to enhance the solubility. The E. coli competent cell line BL21 (DE3) was used for expression of the protein. Cultures were grown at 37° C. for ˜4 hours until the cultures reached an optical density of 2.0 at 600 nm. The cultures were cooled to 20° C. and induced with 1 mM IPTG. Fresh ampicillin was added to a final concentration of 50 μg/ml and the cells were grown overnight at 20° C.
Cell pellets (3 L) were lysed for purification to yield 15-24 mgs of purified NS5B. The lysis buffer consisted of 20 mM Tris-HCl, pH 7.4, 500 mM NaCl, 0.5% triton X-100, 1 mM DTT, 1 mM EDTA, 20% glycerol, 0.5 mg/ml lysozyme, 10 mM MgCl2, 15 ug/ml deoxyribonuclease I, and Complete TM protease inhibitor tablets (Roche). After addition of the lysis buffer, frozen cell pellets were resuspended using a tissue homogenizer. To reduce the viscosity of the sample, aliquots of the lysate were sonicated on ice using a microtip attached to a Branson sonicator. The sonicated lysate was centrifuged at 100,000×g for 1 hr at 4° C. and filtered through a 0.2 μm filter unit (Corning).
The protein was purified using three sequential chromatography steps: Heparin sepharose CL-6B, polyU sepharose 4B, and Hitrap SP sepharose (Pharmacia). The chromatography buffers were identical to the lysis buffer but contained no lysozyme, deoxyribonuclease I, MgCl2 or protease inhibitor and the NaCl concentration of the buffer was adjusted according to the requirements for charging the protein onto the column. Each column was eluted with a NaCl gradient which varied in length from 5-50 column volumes depending on the column type. After the final chromatography step, the resulting purity of the enzyme is >90% based on SDS-PAGE analysis. The enzyme was aliquoted and stored at −80° C.
Standard HCV NS5B RdRp enzyme assay. HCV RdRp genotype Ib assays were run in a final volume of 60 μl in 96 well plates (Costar 3912). The assay buffer is composed of 20 mM Hepes, pH 7.5, 2.5 mM KCl, 2.5 mM MgCl2, 1 mM DTT, 1.6 U RNAse inhibitor (Promega N2515), 0.1 mg/ml BSA (Promega R3961), and 2% glycerol. All compounds were serially diluted (3-fold) in DMSO and diluted further in water such that the final concentration of DMSO in the assay was 2%. HCV RdRp genotype 1b enzyme was used at a final concentration of 28 nM. A polyA template was used at 6 nM, and a biotinylated oligo-dT12 primer was used at 180 nM final concentration. Template was obtained commercially (Amersham 27-4110). Biotinylated primer was prepared by Sigma Genosys. ^3H-UTP was used at 0.6 μCi (0.29 μM total UTP). Reactions were initiated by the addition of enzyme, incubated at 30° C. for 60 min, and stopped by adding 25 μl of 50 mM EDTA containing SPA beads (4 μg/μl, Amersham RPNQ 0007). Plates were read on a Packard Top Count NXT after >1 hr incubation at room temperature.
Modified HCV NS5B RdRp enzyme assay. A modified enzyme assay was performed essentially as described for the standard enzyme assay except for the following: The biotinylated oligo dT12 primer was precaptured on streptavidin-coated SPA beads by mixing primer and beads in assay buffer and incubating at room temperature for one hour. Unbound primer was removed after centrifugation. The primer-bound beads were resuspended in 20 mM Hepes buffer, pH 7.5 and used in the assay at final concentrations of 20 nM primer and 0.67 μg/μl beads. Order of addition in the assay: enzyme (14 nM) was added to diluted compound followed by the addition of a mixture of template (0.2 nM), ^3H-UTP (0.6 μCi, 0.29 μM), and primer-bound beads, to initiate the reaction; concentrations given are final. Reactions were allowed to proceed for 4 hours at 30° C.
The IC50 values for compounds were determined using seven different [I]. […]

HCV replicon = HCV replicon FRET assay; assay type: cell-based; settings: Hepatitis C virus; FRET assay; read-out: EC50
Procedure: The IC50 values for compounds were determined using seven different [I]. IC50 values were calculated from the inhibition using the formula y=A+((B−A)/(1+((C/x)^D))). FRET Assay Preparation. To perform the HCV FRET screening assay, 96-well cell culture plates were used. The FRET peptide (Anaspec, Inc.) (Taliani et al., Anal. Biochem. 240:60-67 (1996), hereby incorporated by reference in its entirety) contains a fluorescence donor, EDANS, near one end of the peptide and an acceptor, DABCYL, near the other end. The fluorescence of the peptide is quenched by […] resonance energy transfer (RET) between the donor and the acceptor, but as the NS3 protease cleaves the peptide the products are released from RET quenching and the fluorescence of the donor becomes apparent. The assay reagent was made as follows: 5× cell Luciferase cell culture lysis reagent from Promega (#E153A) diluted to 1× with dH2O, NaCl added to 150 mM final, the FRET peptide diluted to 20 uM final from a 2 mM stock.
To prepare plates, HCV replicon cells, with or without a Renilla luciferase reporter gene, were trypsinized and placed into each well of a 96-well plate with titrated test compounds added in columns 3 through 12; columns 1 and 2 contained a control compound (HCV protease inhibitor), and the bottom row contained cells without compound. The plates were then placed in a CO2 incubator at 37 degrees C.
Assays. Subsequent to addition of the test compounds described above (FRET Assay Preparation), at various times the plate was removed and Alamar blue solution (Trek Diagnostics, #00-100) was added per well as a measure of cellular toxicity. After reading in a Cytoflour 4000 instrument (PE Biosystems), plates were rinsed with PBS and then used for FRET assay by the addition of 30 ul of the FRET peptide assay reagent described above (FRET Assay Preparation) per well. The plate was then placed into the Cytoflour 4000 instrument which had been set to 340 excite/490 emission, automatic mode for 20 cycles and the plate read in a kinetic mode. Typically, the signal to noise using an endpoint analysis after the reads was at least three-fold. Alternatively, after Alamar blue reading, plates were rinsed with PBS, 50 ul of DMEM (high glucose) without phenol red was added and plates were then used for luciferase assay using the Promega Dual-Glo Luciferase Assay System.
Compound analysis was determined by quantification of the relative HCV replicon inhibition and the relative cytotoxicity values. To calculate cytoxicity values, the average Alamar Blue fluorescence signals from the control wells were set as 100% non-toxic. The individual signals in each of the compound test wells were then divided by the average control signal and multiplied by 100% to determine […]. To calculate the HCV replicon inhibition values, an average background value was obtained from the two wells containing the highest amount of HCV protease inhibitor at the end of the assay period. These numbers were similar to those obtained from naïve Huh-7 cells.
The background numbers were then subtracted from the average signal obtained from the control wells and this number was used as 100% activity. The individual signals in each of the compound test wells were then divided by the averaged control values after background subtraction and multiplied by 100% to determine percent activity. EC50 values for a protease inhibitor titration were calculated as the concentration which caused a 50% reduction in FRET or luciferase activity. The two numbers generated for the compound plate, percent cytoxicity and percent activity were used to determine compounds of interest for further analysis.

T1 sequence (Q9WMX2 2420-2992): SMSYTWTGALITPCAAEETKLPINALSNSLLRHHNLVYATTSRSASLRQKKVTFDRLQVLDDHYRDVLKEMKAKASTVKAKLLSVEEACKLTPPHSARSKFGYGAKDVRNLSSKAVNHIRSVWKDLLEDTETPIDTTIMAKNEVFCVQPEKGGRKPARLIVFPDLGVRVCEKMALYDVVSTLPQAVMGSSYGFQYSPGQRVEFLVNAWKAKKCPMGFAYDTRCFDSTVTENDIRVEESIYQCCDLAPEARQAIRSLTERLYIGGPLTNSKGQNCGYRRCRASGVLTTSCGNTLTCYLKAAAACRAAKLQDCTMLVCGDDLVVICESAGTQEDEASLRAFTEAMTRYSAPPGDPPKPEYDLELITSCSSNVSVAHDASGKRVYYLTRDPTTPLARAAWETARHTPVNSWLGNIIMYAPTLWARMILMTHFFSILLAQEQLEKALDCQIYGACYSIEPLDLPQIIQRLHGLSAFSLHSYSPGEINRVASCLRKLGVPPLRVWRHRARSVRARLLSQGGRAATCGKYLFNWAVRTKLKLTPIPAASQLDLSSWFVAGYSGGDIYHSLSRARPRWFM

Row | Structure (SMILES) | IC50 [1] [nM] | EC50 (HCV replicon) [nM]
1 | Cn1c(C(=O)O)cc2cc(NC(=O)C3(NC(=O)c4ccc5c(C6CCCCC6)c6n(c5c4)CC(=O)Nc4ccccc4-6)CCCC3)ccc21 | 20 to 1000 | 10 to 1000
2 | CN(C)CCNC(=O)C1=Cc2ccccc2-c2c(C3CCCCC3)c3ccc(C(=O)NC4(C(=O)Nc5ccc6c(c5)cc(C(=O)O)n6C)CCCC4)cc3n2C1 | 20 to 1000 | 10 to 1000
3 | COC(=O)/C=C/c1ccc2[nH]c(C3(NC(=O)c4ccc5c(C6CCCCC6)c6n(c5c4)CC(=O)Nc4ccccc4-6)CCCC3)nc2c1 | 20 to 1000 | < 100
4 | CCOC(=O)/C=C/c1ccc(NC(=O)C2(NC(=O)c3ccc4c(C5CCCCC5)c5n(c4c3)CC(=O)Nc3ccccc3-5)CCNCC2)cc1 | 20 to 1000 | 10 to 1000
5 | COC(=O)c1ccc2c(C3CCCCC3)c3n(c2c1)CC(=O)N(CCN(C)C)c1ccccc1-3 | > 1000 | 1000 to 10000
6 | CN1C(=O)Cn2c(c(C3CCCCC3)c3ccc(C(=O)NC4(C(=O)Nc5ccc6c(c5)cc(C(=O)O)n6C)CCCC4)cc32)-c2ccccc21 | 20 to 1000 | 10 to 1000
7 | O=C1Cn2c(c(C3CCCCC3)c3ccc(C(=O)NS(=O)(=O)N4CCCC4)cc32)-c2ccccc2N1 | 20 to 1000 | 10 to 1000
8 | CN(Cc1ccccc1)S(=O)(=O)NC(=O)c1ccc2c(C3CCCCC3)c3n(c2c1)CC(=O)Nc1ccccc1-3 | 20 to 1000 | 10 to 1000
9 | O=C(O)/C=C/c1ccc2[nH]c(C3(NC(=O)c4ccc5c(C6CCCCC6)c6c7ccccc7ncn6c5c4)CCCC3)nc2c1 | 20 to 1000 | 10 to 1000
10 | CN(C)CCN1C(=O)Cn2c(c(C3CCCCC3)c3ccc(C(=O)O)cc32)-c2ccccc21 | 20 to 1000 | 10 to 1000
11 | COC(=O)/C=C/c1ccc(CN(C)S(=O)(=O)NC(=O)c2ccc3c(C4CCCCC4)c4n(c3c2)CC(=O)Nc2ccccc2-4)cc1 | 20 to 1000 | 10 to 1000
12 | COC(=O)c1ccc(CN(C)S(=O)(=O)NC(=O)c2ccc3c(C4CCCCC4)c4n(c3c2)CC(=O)Nc2ccccc2-4)cc1 | 20 to 1000 | 10 to 1000
13 | CN(Cc1ccc(C(=O)O)cc1)S(=O)(=O)NC(=O)c1ccc2c(C3CCCCC3)c3n(c2c1)CC(=O)Nc1ccccc1-3 | 20 to 1000 | 1000 to 10000
14 | CN(Cc1ccc(/C=C/C(=O)O)cc1)S(=O)(=O)NC(=O)c1ccc2c(C3CCCCC3)c3n(c2c1)CC(=O)Nc1ccccc1-3 | 20 to 1000 | 1000 to 10000
15 | COC(=O)/C=C/c1ccc(NC(=O)C2(NC(=O)c3ccc4c(C5CCCCC5)c5n(c4c3)CCCc3sc(C)nc3-5)CCCC2)cc1 | > 1000 | > 10000
16 | Cc1nc2c(s1)CCCn1c-2c(C2CCCCC2)c2ccc(C(=O)O)cc21 | > 1000 | > 10000
17 | Nc1nc2c(s1)CCCn1c-2c(C2CCCCC2)c2ccc(C(=O)O)cc21 | > 1000 | > 10000
18 | Cc1nc2c(s1)CCCn1c-2c(C2CCCCC2)c2ccc(C(=O)NC3(C(=O)Nc4ccc(/C=C/C(=O)O)cc4)CCCC3)cc21 | 20 to 1000 | 1000 to 10000
19 | N#CC1C(=O)Cn2c(c(C3CCCCC3)c3ccc(C(=O)O)cc32)-c2ccccc21 (centres unmarked) | 20 to 1000 | > 10000
20 | COc1cc(CNC(=O)c2ccc3c(C4CCCCC4)c4n(c3c2)CC(=O)Nc2ccccc2-4)ccc1O | 20 to 1000 | < 100
21 | O=C(O)c1ccc2c(C3CCCCC3)c3n(c2c1)CCCc1ocnc1-3 | > 1000 | > 10000
22 | COC(=O)/C=C/c1ccc(NC(=O)C2(NC(=O)c3ccc4c(C5CCCCC5)c5n(c4c3)CCCc3sc(N)nc3-5)CCCC2)cc1 | > 1000 | > 10000
23 | Nc1nc2c(s1)CCCn1c-2c(C2CCCCC2)c2ccc(C(=O)NC3(C(=O)Nc4ccc(/C=C/C(=O)O)cc4)CCCC3)cc21 | 20 to 1000 | 1000 to 10000
24 | NC(=O)C1(NC(=O)c2ccc3c(C4CCCCC4)c4n(c3c2)CC(=O)Nc2ccccc2-4)CCCC1 | 20 to 1000 | 10 to 1000
25 | O=C1Cn2c(c(C3CCCCC3)c3ccc(C(=O)NS(=O)(=O)N4CCN(c5ccccc5)CC4)cc32)-c2ccccc2N1 | 20 to 1000 | 1000 to 10000
26 | COC(=O)c1ccc2c(c1)CCN(S(=O)(=O)NC(=O)c1ccc3c(C4CCCCC4)c4n(c3c1)CC(=O)Nc1ccccc1-4)C2 | 20 to 1000 | 1000 to 10000
27 | CS(=O)(=O)NC(=O)c1ccc2c(C3CCCCC3)c3n(c2c1)CC(C(=O)N1CCOCC1)Cc1ccccc1-3 (centres unmarked) [drawing 349] | 20 to 1000 | –
